Patent US12077557B2, “Puromycin-based probes and methods of use thereof” (The Regents of the University of California, priority 2018, dated 2024)

Legend:
HeLa cells [1] = test: Immunostaining and confocal fluorescence imaging of HeLa cells treated with puromycin-based probes; format: cell-based, human; details: for change in fluorescence intensity with H2O2 pretreatment: H2O2 50 μM 2 h pretreatment; for change of immunofluorescence intensity with incubation time: basal analyte level; for change in immunofluorescence intensity with cysteine or GSH incubation: 1 μM compound and cysteine or GSH 100 μM, 4 h; for change in fluorescence intensity with paraquat co-incubation: 1 μM compound, paraquat 1 mM; for green immunofluorescence at 0.5 h: basal
A431 cells = test: Immunostaining and confocal imaging of A431 cells with stimulation or inhibition of H2O2 or NO production; format: cell-based, human; details: for change in fluorescence intensity with EGF stimulation: EGF 100 ng/mL 20, 40, 60 min, then 1 μM compound 4 h
Source text: Human cervical epithelial carcinoma (HeLa), human epidermoid carcinoma (A-431) and human breast carcinoma (MDA-MB-231 and MDA-MB-468) were maintained in DMEM medium (high glucose) supplemented with GlutaMAX and 10 vol % FBS. Human breast carcinoma (MCF-7) was maintained in DMEM medium (high glucose) supplemented with GlutaMAX, 10 vol % FBS, 1 vol % non-essential amino acids and 1% sodium pyruvate. Human breast carcinoma (HS 578T) was maintained in DMEM medium (high glucose) supplemented with GlutaMAX, 10 vol % FBS, 1% sodium pyruvate and insulin (10 μg/mL). Human non-tumorigenic breast epithelial cells (MCF-10A) were maintained in DMEM/F12 (with L-glutamate, HEPES and phenol red) supplemented with 5 vol % horse serum, EGF (20 ng/mL), hydrocortisone ([…]), cholera toxin (100 ng/mL), insulin (10 μg/mL) and 1 vol % penicillin/streptomycin. Human normal breast epithelial cells (HS 578Bst) were maintained in ATCC Hybri-Care Medium (No. 46-X) supplemented with sodium bicarbonate ([…]), EGF (30 ng/mL) and 10 vol % FBS. All cells were incubated in 5% CO2 humidified air, and subcultured when 80% confluence was reached. For cell-imaging experiments, the cells were plated on 8-well Lab Tek borosilicate chambered coverglass slides (Nunc) or 24-well plates with 12 mm coverslips, and allowed to grow to ca. 60% confluency before performing the cell imaging experiments.
Cells were incubated with the compound (1 μM) for indicated time intervals. The cells were then washed three-times by PBS solution and fixed by 4% paraformaldehyde at room temperature for 10 min. The cells were washed by PBS solution and PBS solution with 0.1 vol %-Triton X-100, followed by incubation with α-puromycin antibody [3RH11] (Kerafast; 1:500, v/v) in PBS solution containing 10 vol % FBS and 0.1 vol % Triton X-100 at 37° C. for 30 min. Subsequently, the cells were washed by PBS solution and PBS solution with 0.1 vol %-Triton X-100, and stained by α-mouse secondary antibody-Alexa Fluor 488 (1:100, v/v) in PBS solution containing 10 vol % FBS and 0.1 vol % Triton X-100 at 37° C. for 30 min. The cells were then washed by PBS solution and stained by Hoechst 33342 at room temperature for 10 min. After that, the cells were washed three-times by PBS solution and imaged by confocal fluorescence microscopy.
EGF stimulation was carried out by pretreatment of A431 cells by EGF (100 ng/mL) for 20, 40 and 60 min, then washed by PBS and incubated with Peroxymycin-1 (1 μM) for 4 h.
For the study with L-NAME, A431 cells were pretreated with L-NAME (100 μM) for 25 min, then washed by PBS and incubated with EGF (100 ng/mL) for 40 min, followed by washing and incubation with Peroxymycin-1 (1 μM) for 4 h.
For the DPI experiment, the cells were pretreated with a mixture of DPI (5 μM) and EGF (100 ng/mL) for 40 min, followed by incubation with a mixture of DPI (5 μM) and Peroxymycin-1 (1 μM) for 4 h.
For the inhibition of H2O2 production by gp91 Tat peptide, the cells were pretreated with gp91 Tat peptide (100 μM) for 30 min, then incubated with a mixture of gp91 Tat peptide (100 μM) and Peroxymycin-1 (1 μM) for 4 h.
Confocal fluorescence cell imaging was performed with a Zeiss laser scanning microscope 710 with a 40× water-immersion objective lens using Zen 2009 software (Carl Zeiss). Hoechst 33342 was excited with a 405 nm diode laser, and emission was collected using a META detector between 450 and 500 nm. Alexa Fluor 488 was excited with 488 nm with an Ar laser, and emission was collected using a META detector between 500 and 625 nm. Alexa Fluor 647 was excited with a 633 nm HeNe laser, and emission was collected using a META detector between 638 and 647 nm. PBS solution was used as the imaging buffer for all the confocal experiments. Image analysis was performed using ImageJ. A region of interest (ROI) was created around a single cell, and cellular fluorescence intensity was measured. […]

[2] = LC-MS study of reaction of probe with GSH and other substrates; details: 25° C.; probe 0.3 mM, GSH 1.0 mM
Protocol: (§1) MilliQ water was used in all experiments unless otherwise stated. Reaction kinetics of the probes with species of interest and other substrates were investigated by LC-MS (Agilent Technology 6130, Quadrupole LC/MS) coupled with photodiode array for detection (X=275 nm). Confocal microscopy images were recorded on a Zeiss laser scanning microscope 710 with a 40× water-immersion objective lens using Zen 2009 software (Carl Zeiss).
(§2) Peroxymycin-1 and Ctrl-Peroxymycin-1 (0.3 mM), respectively, were dissolved in phosphate buffer (20 mM, pH 7.4)-methanol solution mixture (2:1, v/v) with 3 vol % DMSO and allowed to stand at room temperature. At predetermined time intervals, an aliquot of the solution mixture was taken for LC-MS analysis. Separation was achieved by gradient elution from 5-100% MeOH in water (constant 0.1 vol % formic acid) over 8 min, isocratic with 100% MeOH from 8 to 12 min and returned to initial conditions and equilibrated for 3 minutes. The LC chromatograms were recorded by monitoring absorption at 275 nm.

[3] = LC-MS study of reaction of probe with H2S and other substrates; details: 25° C.; probe 0.3 mM, H2S 1 mM
Protocol: as §1, §2

HeLa cells [4] = test: Confocal fluorescence imaging of HeLa cells treated with fluorescent H2O2 probe PF2; format: cell-based, human
Source text: (§3) Human cervical epithelial carcinoma (HeLa), human epidermoid carcinoma (A-431) and human breast carcinoma (MDA-MB-231 and MDA-MB-468) were maintained in DMEM medium (high glucose) supplemented with GlutaMAX and 10 vol % FBS. Human breast carcinoma (MCF-7) was maintained in DMEM medium (high glucose) supplemented with GlutaMAX, 10 vol % FBS, 1 vol % non-essential amino acids and 1% sodium pyruvate. Human breast carcinoma (HS 578T) was maintained in DMEM medium (high glucose) supplemented with GlutaMAX, 10 vol % FBS, 1% sodium pyruvate and insulin (10 μg/mL). Human non-tumorigenic breast epithelial cells (MCF-10A) were maintained in DMEM/F12 (with L-glutamate, HEPES and phenol red) supplemented with 5 vol % horse serum, EGF (20 ng/mL), hydrocortisone (0.5 mg/mL), cholera toxin (100 ng/mL), insulin (10 μg/mL) and 1 vol % penicillin/streptomycin. […]
(§4) Confocal fluorescence cell imaging was performed with a Zeiss laser scanning microscope 710 with a 40× water-immersion objective lens using Zen 2009 software (Carl Zeiss). […] A region of interest (ROI) was created around a single cell, and cellular fluorescence intensity was measured. The reported cellular fluorescence intensity was determined by averaging the measured intensity of 5 different cells from at least 3 different images in triplicate experiments. […]

[5] = Stability of probes in phosphate buffer-methanol mixture by LC-MS; format: physicochemical
Protocol: as §1, §2

[6] = LC-MS study of reaction of probe with H2O2 and other ROS; details: 25° C.; probe 0.3 mM, H2O2 0.1 mM
Protocol: as §1, §2
For the study of the reaction with H2O2, Peroxymycin-1 and Ctrl-Peroxymycin-1 (0.3 mm), respectively, were dissolved in phosphate buffer (20 mM, pH 7.4)-methanol solution mixture (2:1, v/v) with 3 vol % DMSO. H2O2 was then added to the solution mixture (final concentration=0.1 mM), and the reaction mixture was allowed to stand at room temperature. […]

[7] = tested on: panel of related cancer and non-tumorigenic breast cell lines; test: H2O2 profiling across a panel of cancer and non-tumorigenic breast cell lines; format: cell-based, human; details: 1 μM, 4 h; MDA-MB-231, HS 578T, MDA-MB-468, MCF-7, MCF-10A, HS 578Bst
Source text: as §3, with “μg/mL).” for “μg/mL). Human non-tumorigenic breast epithelial cells (MCF-10A) were maintained in DMEM/F12 (with L-glutamate, HEPES and phenol red) supplemented with 5 vol % horse serum, EGF (20 ng/mL), hydrocortisone (0.5 mg/mL), cholera toxin (100 ng/mL), insulin (10 μg/mL) and 1 vol % penicillin/streptomycin.”
Cells were incubated with the compound (1 μM) for indicated time intervals. […] After that, the cells were washed three-times by PBS solution and imaged by confocal fluorescence microscopy.
as §4

[8] = H2S 100 μM 30 min, then 1 μM compound 4 h

COc1ccc(CC(NC(=O)OCCc2ccc(B3OC(C)(C)C(C)(C)O3)cc2)C(=O)NC2C(CO)OC(n3cnc4c(N(C)C)ncnc43)C2O)cc1 (stereo not shown) [Ctrl-Peroxymycin-1]
change in fluorescence intensity with H2O2 pretreatment (HeLa cells [1]; then 1 μM compound 4 h): lack of signal
change in fluorescence intensity with EGF stimulation (A431 cells): no observable differences in immunofluorescence

COc1ccc(CC(NC(=O)OCCSSCCOC(C)=O)C(=O)NC2C(CO)OC(n3cnc4c(N(C)C)ncnc43)C2O)cc1 (stereo not shown) [GSH-Puro-1]
pseudo-first-order rate constant of the reaction with GSH [2]: 9.4e-05 s⁻¹
relative fluorescence intensity compared to cells treated by puromycin (HeLa cells [1]; 1 μM, 4 h incubation): 69%
relative fluorescence intensity compared to cells treated by puromycin (HeLa cells [1]; 1 μM, 6 h incubation): 79%
change of immunofluorescence intensity with incubation time (HeLa cells [1]; 1 μM, HeLa cells): Time-dependent increase in immunofluorescence intensity
fluorescence with BSO pretreatment compared to no pretreatment (HeLa cells [1]; BSO 1 mM 3 h, then probe 2 h): significantly weaker fluorescence
immunofluorescence with GSH or lipoic acid pretreatment compared to no pretreatment (HeLa cells [1]; GSH 100 μM 24 h or lipoic acid 1.8 mM 24 h, then probe 2 h): stronger immunofluorescence

COc1ccc(CC(NC(=O)OCc2ccc(N=[N+]=[N-])cc2)C(=O)NC2C(CO)OC(n3cnc4c(N(C)C)ncnc43)C2O)cc1 (stereo not shown) [H2S-Puro-1]
pseudo-first-order rate constant of the reaction with H2S [3]: 6.3e-05 s⁻¹
change in immunofluorescence intensity with cysteine or GSH incubation (HeLa cells [1]): significant increase in immunofluorescence intensity
relative fluorescence intensity compared to cells treated by puromycin (HeLa cells [1]; 1 μM, 4 h incubation): around 5%
change of immunofluorescence intensity with incubation time (HeLa cells [1]; 1 μM, HeLa cells): time-dependent increase in green fluorescence intensity
immunofluorescence with H2S pretreatment relative to no pretreatment (HeLa cells [1]; [8]): 1.4 fold

COc1ccc2c(c1)Oc1cc(B3OC(C)(C)C(C)(C)O3)ccc1C21OC(=O)c2ccccc21 (stereo not shown) [PF2, Peroxyfluor-2]
cellular fluorescence (basal H2O2) (HeLa cells [4]; 10 μM for 0.5, 4 and 6 h, washed): negligible fluorescence
change in signal in response to Nox2 inhibition by gp91 Tat peptide (HeLa cells [4]; gp91 Tat peptide 100 μM 30 min, PF2 10 μM 4 h): failed to show statistically significant decreases in signal

COc1ccc(CC(NC(=O)OCc2ccc(B3OC(C)(C)C(C)(C)O3)cc2)C(=O)NC2C(CO)OC(n3cnc4c(N(C)C)ncnc43)C2O)cc1 (stereo not shown) [Peroxymycin-1]
stability in aqueous solution buffered to physiological pH ([5]; 0.3 mM probe, phosphate buffer (20 mM, pH 7.4)-methanol (2:1, v/v), 3 vol % DMSO, room temperature): good stability
puromycin generation in the absence of H2O2 ([5]; control experiment, LC-MS): negligible puromycin generation
pseudo-first-order rate constant of the reaction with H2O2 [6]: 0.001 s⁻¹
change in fluorescence intensity with paraquat co-incubation (HeLa cells [1]): significant increases in fluorescence intensity
fluorescence intensity with H2O2 co-incubation relative to cells treated with probe only (HeLa cells [1]; 1 μM probe 4 h, H2O2 50 μM co-incubation for 2 h): 4.3 times
relative fluorescence intensity compared to cells treated by puromycin (HeLa cells [1]; 1 μM, 4 h incubation): 30.5%
green immunofluorescence at 0.5 h (HeLa cells [1]; 1 μM, HeLa cells): no significant green fluorescence
change of immunofluorescence intensity with incubation time (HeLa cells [1]; 1 μM, HeLa cells): increases in fluorescence intensity
change in fluorescence intensity with H2O2 pretreatment (HeLa cells [1]; then 1 μM compound 4 h): statistically significant increase in fluorescence intensity
change in fluorescence intensity with EGF stimulation (A431 cells): statistically significant increase in fluorescence intensity
change in immunofluorescent signal with DPI incubation (A431 cells; EGF 100 ng/mL 40 min, DPI 5 μM, probe 1 μM 4 h): statistically significant decrease in immunofluorescent signal
effect of L-NAME on EGF-stimulated immunofluorescence (A431 cells; L-NAME 100 μM 25 min, EGF 100 ng/mL 40 min, probe 1 μM 4 h): does not block EGF-stimulated increases
immunofluorescence with gp91 Tat peptide compared to controls without inhibitor (A431 cells; gp91 Tat peptide 100 μM 30 min, probe 1 μM 4 h): markedly lower levels
order of fluorescence intensities normalized to puromycin-treated cells [7]: metastatic/invasive cancer cells>cancer cells>non-tumorigenic cells

COc1ccc(C[C@H](N)C(=O)N[C@H]2[C@@H](O)[C@H](n3cnc4c(N(C)C)ncnc43)O[C@@H]2CO)cc1 [puromycin]
change in immunofluorescence intensity with cysteine or GSH incubation (HeLa cells [1]): negligible change in fluorescence intensity
change in fluorescence intensity with paraquat co-incubation (HeLa cells [1]): no significant changes in fluorescence
time of saturation of green fluorescence (HeLa cells [1]; 1 μM, HeLa cells): 1 h
green immunofluorescence at 0.5 h (HeLa cells [1]; 1 μM, HeLa cells): strong green fluorescence
change in fluorescence intensity with H2O2 pretreatment (HeLa cells [1]; then 1 μM compound 4 h): lack of observed changes in fluorescence intensity
change in immunofluorescence intensity by H2S pretreatment (HeLa cells [1]; [8]): No significant change in immunofluorescence intensity
change in immunofluorescence intensity with GSH, lipoic acid or BSO pretreatment (HeLa cells [1]; puromycin control): no significant change in immunofluorescence intensity
change in fluorescence intensity with EGF stimulation (A431 cells): do not show any significant changes in fluorescence intensity
